Consider seven compounds from paper PMC6921407, “Novel coumarins active against Trypanosoma cruzi and toxicity assessment using the animal model Caenorhabditis elegans” (BMC Pharmacology & Toxicology, 2019).

“And” between values parts separate entries of the source, which are not always exact repeats. Identical values can stand only once. Like-named read-outs stand apart in the source and are kept apart here.

For orientation: IC50 means the concentration needed to halve the response being measured. One may read the EC50 as the concentration needed to bring the measured effect to its halfway point.

Data set [1] relates to Trypanosoma cruzi epimastigotes (Tulahuen 2 strain). Description: Anti-Trypanosoma cruzi activity: growth inhibition of epimastigotes (absorbance at 600 nm, day 5). It counts as cell-based. To be noted: T. cruzi epimastigotes; for IC50: read-out: IC50. Here is the method:
Trypanosoma cruzi epimastigotes (Tulahuen 2 strain) were grown at 28 °C in an axenic milieu (BHI-Tryptose) supplemented with 5% fetal bovine serum (FBS), as previously described. Cells from a 10-day-old culture (stationary phase) were inoculated into 50 mL of fresh culture milieu to give an initial concentration of 1 × 10^6 cells per mL. Cell growth was followed by measuring the absorbance of the culture at 600 nm every day. Before inoculation, the milieu was supplemented with a given amount of the coumarin from a freshly prepared stock solution in DMSO (25 mM). The final concentration of DMSO in the culture medium never exceeded 0.4%, and the control was run in the presence of 0.4% DMSO and in the absence of drugs. […] Nifurtimox (Nfx) was used as the reference trypanocidal drug. The percentage of growth inhibition (PGI) was calculated as follows: PGI (%) = {1 - [(Ap - A0p) / (Ac - A0c)]} × 100, where Ap = […] of the culture containing the studied compound at day 5; […] = […] of the culture containing the studied compound just after addition of the inocula (day 0); Ac = […] of the culture in the absence of the studied compound (control) at day 5; […] = […] in the absence of the studied compound at day 0. […] At day 5, the absorbance of the culture was measured and related to the control.

For data set [2], the system named is Caenorhabditis elegans N2 (wild type). As to conditions: L1 worms exposed 30 min, survival counted 24 hours after exposure. On the procedure: The nematode strain used was N2 (wild type), originally obtained from the Caenorhabditis Genetics Center (University of Minnesota, Twin Cities, MN, USA), which was maintained on nematode growth medium (NGM) plates seeded with Escherichia coli OP50 at 20°C. Synchronization of C. elegans cultures at the first larval stage (L1) was achieved by washing off the gravid nematodes from the plates into the centrifuge tubes, which were lysed with a bleaching mixture (1% NaOCl; 0.25 M NaOH), followed by flotation on a sucrose solution 30% (m/v) to separate the eggs from the dissolved worms and bacterial debris. The eggs were washed with M9 buffer (0.02 M KH2PO4, 0.04 M Na2HPO4, 0.08 M NaCl, and 0.001 M MgSO4) and allowed to hatch overnight (16 hours) in NGM agar plates without bacteria. After 16 hours it was obtained worms at L1 stage. Then, 1.500 L1 worms were exposed for 30 minutes at 20°C, by constant agitation in a rotator, at crescent doses ranging from 25 to 100 mM of coumarins in a 0.5% NaCl liquid media. Stock solutions of coumarins were made in DMSO, therefore worms treated with 0.5% NaCl and 0.5% DMSO were used as controls. After exposure, worms were washed 3 times with 0.5% NaCl to remove the treatments. Finally, worms were transferred to NGM recovery plates inoculated with Escherichia coli (OP50) for posterior assays.
The LD50 of coumarins was determined in C. elegans after exposure. The worms were washed three times with NaCl buffer and placed on OP50-seeded NGM plates. The number of surviving worms on each plate was verified 24 hours after exposure. The lethality data was normalized with the controls and presented as a percentage. All the coumarins were tested in three independent experiments with each concentration tested in two replicates within each experiment.

The test system is the same in data set [3]. The data set can be described thus: Body area (worm development) of C. elegans after acute exposure. As to conditions: 30 min exposure, measured 48 hours after exposure; tested 25 to 100 mM; ANOVA/Bonferroni. It counts as in vivo. Here is the method:
For the evaluation of body area, 48 hours after exposure the adult worms (20 nematodes per treatment) were photographed and their body contour was measured. For this, the NGM plates were washed with distilled water and the resulting solution was transferred to a centrifuge tube, where the worm was allowed to settle, separating it from the bacteria in suspension. The process was repeated until the solution became clear. […] The pictures were acquired from 20 worms per treatment, which were manually contoured and measured with AxioVision software LE version 4.8.2.0 for Windows.

For data set [4], the system named is Trypanosoma cruzi epimastigotes (Tulahuen 2 strain). Set-up: method as in PMID 19811923. As to conditions: in vitro, epimastigote form of T. cruzi; cited from earlier work.
The subject of the next data set is T. cruzi. Set-up: method as in doi:10.1351/pac200173030617. As to conditions: proposed mechanism glyceraldehyde 3-phosphate dehydrogenase inhibition; cited from earlier work.
The subject of the next data set is C. elegans. Set-up: method as in PMID 23727123. As to conditions: for the worm; cited from earlier work.
The test system of another data set is Trypanosoma cruzi. Set-up: method as in PMID 24340110. To be noted: cited from earlier work.
The mark [5] stands for this setting: Trypanosoma cruzi, TULAHUEN, 120 h.

For `Cc1ccc2oc(=O)cc(CN(C)c3ccccc3)c2c1` [10g], the IC50 in data set [1] was 8.9 µM; in data set [1] (setting [5]) it was under 10 µM. Further, the “LD50 (DL50)” value in data set [2] was 42.3 mM.
As to `CCc1ccc2oc(=O)cc(CN(C)c3ccccc3)c2c1` [11g], the half-inhibitory concentration (IC50) in data set [1] is under 10 µM; in data set [1] (setting [5]), 8.2 ± 2.3 µM. In addition, in data set [1] (test concentration not given), the “GI (%) / percentage of growth inhibition (PGI)” value is under 78.6%. For the same compound, the “LD50 (DL50)” value in data set [2] was 61.7 mM and 61.50 mM; in data set [2] (listed as LaSOM 231), 61.55 mM.
`CCc1ccc2oc(=O)cc(CN(C)c3ccc(Cl)cc3)c2c1` [11h]: the results for the half-inhibitory concentration (IC50) in data set [1] and in data set [1] (setting [5]) were under 10 µM and 6.4 ± 1 µM, respectively. Moreover, in data set [2], the “LD50 (DL50)” value was 73.4 mM and 70.81 mM. In addition, the “concentrations with significant reduction of body area compared with the control” value in data set [3] is 50000 µM.
As to `O=C(Cn1ccnc1[N+](=O)[O-])NCc1ccccc1` [Benznidazole], in data set [4], the “IC50 compared with Nifurtimox” value is “very similar IC50 values”.
For `C=CC(C)(C)c1cc2cc3c(cc2oc1=O)O[C@H](C(C)(C)O)C3` [Chalepin], in the data set with T. cruzi, the IC50 is 64 µM.
Consider `CCCSc1ccc2nc(NC(=O)OC)[nH]c2c1` [albendazole], for which the concentration for a half-maximal effect (EC50) in the data set on C. elegans was 18.4 µM.
Turning to Soulamarin, the IC50 in the data set with Trypanosoma cruzi was 210 µM.
